From patent US10221426B2, “Constitutively active PYR/PYL receptor proteins for improving plant stress tolerance” (The Regents of the University of California, priority 2009, dated 2019) come the findings set out here.

In the test the target is T1, PYR1 and PP2Cs (GST-HAB1, GST-ABI1, GST-ABI2) (Arabidopsis thaliana, UniProt O49686).
T1 construct: made in house; host or cells: E. coli BL21[DE3]pLysS
T1 sequence (O49686 1-191): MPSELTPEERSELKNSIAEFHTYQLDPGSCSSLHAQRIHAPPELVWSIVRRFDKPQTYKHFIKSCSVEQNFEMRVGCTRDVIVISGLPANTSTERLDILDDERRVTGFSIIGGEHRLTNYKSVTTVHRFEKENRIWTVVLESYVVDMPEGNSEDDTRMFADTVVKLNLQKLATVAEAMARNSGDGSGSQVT
T1 sequence (Q9CAJ0 1-511 partner): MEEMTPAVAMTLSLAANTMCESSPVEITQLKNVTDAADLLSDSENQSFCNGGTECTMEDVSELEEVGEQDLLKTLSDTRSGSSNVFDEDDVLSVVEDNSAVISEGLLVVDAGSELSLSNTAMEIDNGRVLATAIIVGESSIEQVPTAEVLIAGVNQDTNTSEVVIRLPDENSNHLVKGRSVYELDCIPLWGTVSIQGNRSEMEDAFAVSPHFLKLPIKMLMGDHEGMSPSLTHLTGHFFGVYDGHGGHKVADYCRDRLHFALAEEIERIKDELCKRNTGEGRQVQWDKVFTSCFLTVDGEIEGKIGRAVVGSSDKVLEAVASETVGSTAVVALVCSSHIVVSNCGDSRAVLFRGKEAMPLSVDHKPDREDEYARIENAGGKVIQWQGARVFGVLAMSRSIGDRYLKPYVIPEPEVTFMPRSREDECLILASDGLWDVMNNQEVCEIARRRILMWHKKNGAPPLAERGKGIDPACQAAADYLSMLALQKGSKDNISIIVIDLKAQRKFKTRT
Briefly: Pull-down assay of 6×His-PYR1 with GST-PP2Cs. Type of test: binding. Particulars: purified recombinant proteins; 10 μM (+)-ABA. How it is done: To explore the functional implications of the PYR1-PP2C interaction, we examined if an ABA response could be reconstituted in vitro. Recombinant GST-HAB1, GST-ABI1 and GST-ABI2 were expressed in E. coli and tested for ligand-dependent interactions with 6×His-PYR1 in pull-down assays. Purified 6×His-PYR1 and GST-HAB1 (20 and 100 μg respectively, 8 μM PYR1 final concentration), were combined in 100 μl TBS containing 10 μM (+)-ABA or 1% DMSO for negative control. The reaction was incubated for 90 minutes at RT and 5 μl of PrepEase (USB) His-tagged protein purification resin was added. The resin and reaction mixture was incubated 30 min at RT with gentle shaking at 5 min intervals. The resin was washed five times with TBS containing 10 μM (+)-ABA. After the final wash, the bound protein was eluted in 20 μl SDS-PAGE buffer, boiled for 5 minutes and centrifuged. 5 μl of eluate was analyzed on SDS-PAGE. For pull-downs with ABI1 and ABI2, crude lysates were used in a similar method, except purified PP2C was replaced with cleared E. coli lysates. The amount of lysate added was determined by SDS-page analysis to yield ˜100 μg PP2C, such that the same stoichiometry was used as in assays using purified proteins.

In the case of `CC1=CC(=O)CC(C)(C)C1(O)/C=C/C(C)=C\C(=O)O` (single isomer, unassigned; (+)) [(+)-ABA], the “ligand-dependent PP2C interaction with 6×His-PYR1 in pull-down” value is given as “promote PP2C interactions with PYR1”.
In the case of `O=S(=O)(NCc1ccccn1)c1ccc(Br)c2ccccc12` [pyrabactin], the “ligand-dependent PP2C interaction with 6×His-PYR1 in pull-down” value is recorded as “promote PP2C interactions with PYR1”.
